# According to patent US9739791B2, “Methods for predicting and treating myocardial damage” (THE CLEVELAND CLINIC FOUNDATION, priority 2010, dated 2017):
# Tested on: infarct size after ischemia reperfusion (LAD ligation)
# Assay: LAD ligation/reperfusion, infarct size as percent area at risk after CoQ10 pretreatment
# Assay type: in vivo
# Settings: WT mice; CoQ10 ip 1 mg/kg/day for 3 days prior to ischemia reperfusion; compared to WT controls; p=0.15
# Description: FIG. 4 is a plot comparing infarct size as a percentage of AAR in WT and ApoAI-null mice given saline or Coenzyme Q10 daily for 3 days prior to ischemia induced by 30 minutes of LAD ligation and 3 hours of reperfusion (data represent mean±SD; n=4-6 per group; *p<0.0001 compared to strain-matched NT control).
# All animal protocols were approved by the Animal Research Committee, and all animals were housed in the Association for Assessment and Accreditation of Laboratory Animal Care International-approved animal facility of the Cleveland Clinic. Anterior wall MI (AMT) was performed as recently described (Askari, A. T. et al., J. Exp. Med. 197:615-624, 2003). Briefly, AMI was induced in eight 20- to 25-g male littermate wild-type (C57BL/6J), ApoA1 heterozygote (ApoA1^+/−) or knockout (ApoA1^−/−) mice by ligation of the LAD 7-0 Prolene. Blanching and dysfunction of the anterior wall verified LAD ligation. After 30 minutes of LAD ligation, microsurgical scissors were used to cut the knot in the ligature at the level of the myocardium, and animals subsequently underwent reperfusion for 3 hours. […] Animals were kept on ventilator for the entire 3 hours of reperfusion and subsequently analyzed for area at risk and infarct size using 1% solution of 2,3,5-triphenyltetrazolium chloride (TTC) at 37° C. […]
compound,measurement,value
"COC1=C(OC)C(=O)C(C/C=C(\C)CC/C=C(\C)CC/C=C(\C)CC/C=C(\C)CC/C=C(\C)CC/C=C(\C)CC/C=C(\C)CC/C=C(\C)CC/C=C(\C)CCC=C(C)C)=C(C)C1=O [CoQ10, Coenzyme Q10]",decrease in IS/% AAR,non-significant trend
